Values of other authors in PubChem BioAssay AID1259409 (Chemical Carcinogenesis Research Information System (CCRIS), 2018).
Where “and” joins values, the source holds several entries; their conditions need not be identical. Equal entries are not always repeated.

System: rodent chemically induced tumor inhibition, incidence and multiplicity
Experiment: CCRIS tumor inhibitor studies
Conditions: Promoter: NONE USED

Compound: CCCCc1cccs1
- tumour outcome (control, treated, inhibition, significance) (Carcinogen: BENZO[A]PYRENE, 50-32-8, Dose [Inhibitor]: 0, 45 UMOL IN 0.2 ML COTTONSEED OIL 3/WK FOR 4 WK BEGINNING 1 DAY PRIOR TO FIRST CARCINOGEN DOSE AND TERMINATING 1 DAY A, Route [Inhibitor]: GAVAGE, Species: MOUSE, Strain/Sex: STRAIN-A/FEMALE, Target Tissue: Type of Lesion: FORESTOMACH: TUMOR, Dose [Carcinogen]: 1 MG 2/WK FOR 4 WK): 14/17 (82%), 9/18 (50%), 39%, p<0.05
- tumour outcome (control, treated, inhibition, significance) (Carcinogen: BENZO[A]PYRENE, 50-32-8, Dose [Inhibitor]: 0, 45 UMOL IN 0.2 ML COTTONSEED OIL 3/WK FOR 4 WK BEGINNING 1 DAY PRIOR TO FIRST CARCINOGEN DOSE AND TERMINATING 1 DAY A, Route [Inhibitor]: GAVAGE, Species: MOUSE, Strain/Sex: STRAIN-A/FEMALE, Target Tissue: Type of Lesion: LUNG: TUMOR, Dose [Carcinogen]: 1 MG 2/WK FOR 4 WK): 17/17 (100%), 18/18 (100%), 0%, not significant
- tumour outcome (control, treated, inhibition, significance) (Carcinogen: BENZO[A]PYRENE, 50-32-8, Dose [Inhibitor]: 0, 90 UMOL IN 0.2 ML COTTONSEED OIL 3/WK FOR 4 WK BEGINNING 1 DAY PRIOR TO FIRST CARCINOGEN DOSE AND TERMINATING 1 DAY A, Route [Inhibitor]: GAVAGE, Species: MOUSE, Strain/Sex: STRAIN-A/FEMALE, Target Tissue: Type of Lesion: FORESTOMACH: TUMOR, Dose [Carcinogen]: 1 MG 2/WK FOR 4 WK): 14/17 (82%), 9/13 (69%), 16%, not significant
- tumour outcome (control, treated, inhibition, significance) (Carcinogen: BENZO[A]PYRENE, 50-32-8, Dose [Inhibitor]: 0, 90 UMOL IN 0.2 ML COTTONSEED OIL 3/WK FOR 4 WK BEGINNING 1 DAY PRIOR TO FIRST CARCINOGEN DOSE AND TERMINATING 1 DAY A, Route [Inhibitor]: GAVAGE, Species: MOUSE, Strain/Sex: STRAIN-A/FEMALE, Target Tissue: Type of Lesion: LUNG: TUMOR, Dose [Carcinogen]: 1 MG 2/WK FOR 4 WK): 17/17 (100%), 13/13 (100%), 0%, not significant

Compound: CC1=CCC(=O)O1
- tumour outcome (control, treated, inhibition, significance) (Carcinogen: BENZO[A]PYRENE, 50-32-8, Dose [Inhibitor]: 0.034 MMOL/G IN DIET FOR 5 WK (STUDY DURATION: 21 WK), Route [Inhibitor]: ORAL, Species: MOUSE, Strain/Sex: ICR/HA/FEMALE, Target Tissue: Type of Lesion: FORESTOMACH: TUMOR, Dose [Carcinogen]: 1 MG IN 0.2 ML CORN OIL, 2/WK FOR 4 WK STARTING ON D 8 OF EXPERIMENT): 95%, 42%, 56%, p<0.01 and 95%, 53%, 44%, p<0.01

Compound: CC(C)(C)c1cc(O)ccc1O
- tumour outcome (control, treated, inhibition, significance) (Carcinogen: 7,12-DIMETHYLBENZ[A]ANTHRACENE, 57-97-6, Dose [Inhibitor]: 0.8% IN POWDERED DIET BEGINNING 1 WK POST CARCINOGEN DOSE FOR 51 WK (STUDY DURATION: 52 WK), Route [Inhibitor]: ORAL, Species: RAT, Strain/Sex: SPRAGUE-DAWLEY/FEMALE, Target Tissue: Type of Lesion: EAR DUCT: BENIGN TUMOR, Dose [Carcinogen]: 2.5 MG/100 G BW IN 0.5 ML SESAME OIL ONCE): 7/19 (37%), 5/16 (31%), 15%, not calculated
- tumour outcome (control, treated, inhibition, significance) (Carcinogen: 7,12-DIMETHYLBENZ[A]ANTHRACENE, 57-97-6, Dose [Inhibitor]: 0.8% IN POWDERED DIET BEGINNING 1 WK POST CARCINOGEN DOSE FOR 51 WK (STUDY DURATION: 52 WK), Route [Inhibitor]: ORAL, Species: RAT, Strain/Sex: SPRAGUE-DAWLEY/FEMALE, Target Tissue: Type of Lesion: MAMMARY GLAND: CARCINOMA, Dose [Carcinogen]: 2.5 MG/100 G BW IN 0.5 ML SESAME OIL ONCE): 6/19 (32%), 5/16 (31%), 0.9%, not calculated
- tumour outcome (control, treated, inhibition, significance) (Carcinogen: 7,12-DIMETHYLBENZ[A]ANTHRACENE, 57-97-6, Dose [Inhibitor]: 0.8% IN POWDERED DIET BEGINNING 1 WK POST CARCINOGEN DOSE FOR 51 WK (STUDY DURATION: 52 WK), Route [Inhibitor]: ORAL, Species: RAT, Strain/Sex: SPRAGUE-DAWLEY/FEMALE, Target Tissue: Type of Lesion: MAMMARY GLAND: FIBROADENOMA, Dose [Carcinogen]: 2.5 MG/100 G BW IN 0.5 ML SESAME OIL ONCE): 15/19 (79%), 4/16 (24%), 70%, p<0.001
- tumour outcome (control, treated, inhibition, significance) (Carcinogen: BENZO[A]PYRENE, 50-32-8, Dose [Inhibitor]: 0.03 MMOL/G OF DIET DAILY STARTING 8 D BEFORE AND CONTINUING THROUGH 3 D AFTER CARCINOGEN TREATMENT FOLLOWED BY OBSERVAT, Route [Inhibitor]: ORAL, Species: MOUSE, Strain/Sex: ICR/FEMALE, Target Tissue: Type of Lesion: FORESTOMACH: NEOPLASM, Dose [Carcinogen]: 1 MG IN 0.2 ML CORN OIL 2/WK FOR 4 WK): 94%, 85%, 10%, not significant
- tumour outcome (control, treated, inhibition, significance) (Carcinogen: N-METHYL-N'-NITRO-N-NITROSOGUANIDINE, 70-25-7, N-ETHYL-N-HYDROXYETHYLNITROSAMINE, 13147-25-6, N-METHYLBENZYLNITROSAM, Carcinogen: N-METHYL-N'-NITRO-N-NITROSOGUANIDINE, 70-25-7, N-ETHYL-N-HYDROXYETHYLNITROSAMINE, 13147-25-6, N-METHYLBENZYLNITROSAM, Dose [Inhibitor]: 0, 1% IN DIET FOR 36 WK (STUDY DURATION: 36 WK), Route [Inhibitor]: ORAL, Species: RAT, Strain/Sex: F344/MALE, Target Tissue: Type of Lesion: COLON: CARCINOMA, Dose [Carcinogen]: 100 MG/KG BW MNNG ONCE, 750 MG/KG BW EHEN ONCE, 0.5 MG/KG BW MBN TWICE, 40 MG/KG BW DMH 4 TIMES, 0.05% DBN IN DRINKING W): 10/18 (56%), 4/18 (22%), 61%, not calculated
- tumour outcome (control, treated, inhibition, significance) (Carcinogen: N-METHYL-N'-NITRO-N-NITROSOGUANIDINE, 70-25-7, N-ETHYL-N-HYDROXYETHYLNITROSAMINE, 13147-25-6, N-METHYLBENZYLNITROSAM, Carcinogen: N-METHYL-N'-NITRO-N-NITROSOGUANIDINE, 70-25-7, N-ETHYL-N-HYDROXYETHYLNITROSAMINE, 13147-25-6, N-METHYLBENZYLNITROSAM, Dose [Inhibitor]: 0, 1% IN DIET FOR 36 WK (STUDY DURATION: 36 WK), Route [Inhibitor]: ORAL, Species: RAT, Strain/Sex: F344/MALE, Target Tissue: Type of Lesion: ESOPHAGUS: PAPILLOMA, Dose [Carcinogen]: 100 MG/KG BW MNNG ONCE, 750 MG/KG BW EHEN ONCE, 0.5 MG/KG BW MBN TWICE, 40 MG/KG BW DMH 4 TIMES, 0.05% DBN IN DRINKING W): 3/18 (17%), 15/18 (83%), -388%, p<0.001
- tumour outcome (control, treated, inhibition, significance) (Carcinogen: N-METHYL-N'-NITRO-N-NITROSOGUANIDINE, 70-25-7, N-ETHYL-N-HYDROXYETHYLNITROSAMINE, 13147-25-6, N-METHYLBENZYLNITROSAM, Carcinogen: N-METHYL-N'-NITRO-N-NITROSOGUANIDINE, 70-25-7, N-ETHYL-N-HYDROXYETHYLNITROSAMINE, 13147-25-6, N-METHYLBENZYLNITROSAM, Dose [Inhibitor]: 0, 1% IN DIET FOR 36 WK (STUDY DURATION: 36 WK), Route [Inhibitor]: ORAL, Species: RAT, Strain/Sex: F344/MALE, Target Tissue: Type of Lesion: FORESTOMACH: PAPILLOMA, Dose [Carcinogen]: 100 MG/KG BW MNNG ONCE, 750 MG/KG BW EHEN ONCE, 0.5 MG/KG BW MBN TWICE, 40 MG/KG BW DMH 4 TIMES, 0.05% DBN IN DRINKING W): 6/18 (33%), 15/18 (83%), -151%, p<0.01
- tumour outcome (control, treated, inhibition, significance) (Carcinogen: N-METHYL-N'-NITRO-N-NITROSOGUANIDINE, 70-25-7, N-ETHYL-N-HYDROXYETHYLNITROSAMINE, 13147-25-6, N-METHYLBENZYLNITROSAM, Carcinogen: N-METHYL-N'-NITRO-N-NITROSOGUANIDINE, 70-25-7, N-ETHYL-N-HYDROXYETHYLNITROSAMINE, 13147-25-6, N-METHYLBENZYLNITROSAM, Dose [Inhibitor]: 0, 1% IN DIET FOR 36 WK (STUDY DURATION: 36 WK), Route [Inhibitor]: ORAL, Species: RAT, Strain/Sex: F344/MALE, Target Tissue: Type of Lesion: KIDNEY: RENAL CELL TUMOR, Dose [Carcinogen]: 100 MG/KG BW MNNG ONCE, 750 MG/KG BW EHEN ONCE, 0.5 MG/KG BW MBN TWICE, 40 MG/KG BW DMH 4 TIMES, 0.05% DBN IN DRINKING W): 8/18 (44%), 5/18 (28%), 36%, not calculated

Compound: O=c1[nH]c(=O)c2[nH]cnc2[nH]1
- tumour outcome (control, treated, inhibition, significance) (Carcinogen: URETHANE, 51-79-6, Dose [Inhibitor]: 0.05 UMOL/G BW GIVEN AT 6 HR INTERVALS FOR 36 HR AFTER CARCINOGEN TREATMENT (STUDY DURATION: 5 MO), Route [Inhibitor]: INTRAPERITONEAL, Species: MOUSE, Strain/Sex: ICR/FEMALE, Target Tissue: Type of Lesion: LUNG: PAPILLARY ADENOMA, Dose [Carcinogen]: 0.1 MG/G BW ONCE): 31/59 (53%), 26/40 (65%), -23%, not significant
